Experimental findings from article PMC4363317, “A Highly Efficient Recombinant Laccase from the Yeast Yarrowia lipolytica and Its Application in the Hydrolysis of Biomass” (PLoS ONE, 2015) are described below.

This assay addresses T1, YlLac (Yarrowia lipolytica, UniProt G1C1M2).
T1 construct: ORF 519 residues incl; 19-residue native signal (abstract instead calls the mature protein 519 aa); expressed without native signal behind alpha-factor signal (pPICZalphaA-Wsp-YlLac) in Pichia pastoris KM71H; forward primer GCCATTGGCCCGGTGACC encodes AIGPVT; monomer, glycosylated ~67-68 kDa, ~55 kDa after endoH
T1 sequence (G1C1M2 20-519): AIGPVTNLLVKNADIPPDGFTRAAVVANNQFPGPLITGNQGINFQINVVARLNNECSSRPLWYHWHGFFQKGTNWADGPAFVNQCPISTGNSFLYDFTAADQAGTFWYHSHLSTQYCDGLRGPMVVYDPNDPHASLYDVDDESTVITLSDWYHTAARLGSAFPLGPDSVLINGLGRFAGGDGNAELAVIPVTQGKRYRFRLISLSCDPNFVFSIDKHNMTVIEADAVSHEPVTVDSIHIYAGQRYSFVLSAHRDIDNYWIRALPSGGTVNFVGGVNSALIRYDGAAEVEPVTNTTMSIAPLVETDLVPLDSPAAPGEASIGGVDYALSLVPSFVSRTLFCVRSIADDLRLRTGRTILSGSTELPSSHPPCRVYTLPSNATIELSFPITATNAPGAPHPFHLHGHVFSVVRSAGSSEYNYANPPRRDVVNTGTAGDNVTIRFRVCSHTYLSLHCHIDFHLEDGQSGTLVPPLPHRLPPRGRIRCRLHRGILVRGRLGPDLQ
Briefly: biochemical. Further details: spectrophotometric ABTS oxidation by purified recombinant YlLac with inhibitor, 50 mM sodium acetate pH 4.8. The settings on record: 0.1 mM ABTS, pH 4.8, read-out: % of control remaining; for remaining activity at 100 µM: 0.1 mM; for remaining activity at 500 µM: 0.5 mM; for remaining activity at 1000 µM: 1 mM. The procedure: Sodium dodecyl sulfate polyacrylamide gel electrophoresis (SDS-PAGE; 12% w/v polyacrylamide) was performed as described by Laemmli. The native molecular mass was determined by applying samples to a calibrated Sephacryl S-300 HR 16/60 column as recommended by the supplier (GE Healthcare). Purified recombinant YlLac was treated with endoglycosidase H (NEB, Biolabs UK) according to the manufacturer's protocol. YlLac (6 μg) in 1× glycoprotein denaturing buffer was boiled for 10 min. After cooling, 1 μl of endoglycosidase H was added and the sample was incubated at 37°C overnight. The product of endoglycosidase H treatment was analyzed by SDS-PAGE. Protein bands were stained with Coomassie brilliant blue R-250 (Sigma). The zymogram process was carried out using native PAGE, and the enzyme band was visualized by incubating the gel in 50 mM sodium acetate buffer (pH 4.8) containing 0.1 mM ABTS and 2,6-DMP at room temperature. The UV-vis absorption spectrum of purified laccase was recorded at 25°C on a spectrophotometer (Shimadzu, model UV-1800, Tokyo) in 2 cm path length quartz cells. The effects of pH on laccase activity for various substrates were tested at pH 2–6 in 50 mM citrate-phosphate buffer (pH 2–4) or 50 mM sodium-acetate buffer (pH 4–6). The activity of purified laccase towards the ABTS substrate was examined at 20–80°C at the optimal pH value. The rates of substrate oxidation were determined by measuring the absorbance increases at the respective wavelengths, and the molar extinction coefficients (ε) were obtained from the literature. The effects of various inhibitors and metal ions on the activity of purified laccase were determined using assay mixtures (2 ml) containing appropriately diluted enzyme, 50 mM sodium acetate buffer (pH 4.8), and 0.1 mM ABTS with various concentrations of inhibitors or 5 mM metal ions. Laccase activity in the absence of inhibitor or metal ions was defined as 100%. Measurements were carried out in triplicate. K m and V max values of purified YlLac were determined by measuring the activity of the enzyme with various concentrations (0.01–0.1 mM) of ABTS and 2,6-DMP substrates at the optimal condition in each case. Ki A number of compounds were examined for their effects on YlLac activity, including small ions [compound left out], sulfhydryl group-containing redox reagents (L-cysteine and dithiothreitol, […]), denaturants (thiourea), and a chelator (EDTA) (S2 Table). […] Enzyme activity was not observed in the presence of 0.1 mM NaN3. SDS caused partial inhibition and the metal chelating agent EDTA caused no inhibition. Metal ions such as Cr^3+, Mg^2+, and Mn^2+ inhibited 25%, 24%, and 24% of YlLac activity, respectively.

For the compound `NC(N)=S` [Thiourea], the remaining activity at 100 µM amounted to 91.1 ± 2.1%, the remaining activity at 500 µM stood at 42.2 ± 2% and the remaining activity at 1000 µM is 12.3 ± 1.5%.
On to `O[C@@H](CS)[C@@H](O)CS` (racemic) [Dithiothreitol], for which the remaining activity at 100 µM came to 61.1 ± 2.4%, the remaining activity at 500 µM is 2 ± 0.4% and the remaining activity at 1000 µM is 0%.
On to `N[C@@H](CS)C(=O)O` [l-Cysteine], for which the remaining activity at 100 µM was 76.6 ± 2.1%, the remaining activity at 500 µM was 11.1 ± 1.5% and the remaining activity at 1000 µM came out at 0%.
